Data: PubChem BioAssay AID2060489 (Molecular Pharmacology Branch, DTP, NCI, 2025)

System: 922993-354-T-J3-PDC complex spheroids, viability
Assay: Anticancer human tumor 922993-354-T-J3-PDC patient-derived endometrial carcinoma cell line growth inhibition [GQUAD]
Conditions: for IC50: curve of first compound; for viability, T/C: stronger effect = lower value
Outline: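 Tumor cells were grown as complex spheroids with HUVEC endothelial cells and mesenchymal stem cells as stroma. G-quadruplex stabilizers were combined with targeted agents over half-log dilutions from near the clinical Cmax, or from 10 microM.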

[1] = second compound 0.0316 µM, first compound 0.0316 µM
[2] = second compound 0.0316 µM, first compound 0.1 µM
[3] = second compound 0.0316 µM, first compound 0.316 µM
[4] = second compound 0.0316 µM, first compound 1 µM
[5] = second compound 0.0316 µM, first compound 3.16 µM
[6] = second compound 0.0316 µM, first compound 10 µM
[7] = second compound 0.1 µM, first compound 0.0316 µM
[8] = second compound 0.1 µM, first compound 0.1 µM
[9] = second compound 0.1 µM, first compound 0.316 µM
[10] = second compound 0.1 µM, first compound 1 µM
[11] = second compound 0.1 µM, first compound 3.16 µM
[12] = second compound 0.1 µM, first compound 10 µM
[13] = second compound 0.316 µM, first compound 0.0316 µM
[14] = second compound 0.316 µM, first compound 0.1 µM
[15] = second compound 0.316 µM, first compound 0.316 µM
[16] = second compound 0.316 µM, first compound 1 µM
[17] = second compound 0.316 µM, first compound 3.16 µM
[18] = second compound 0.316 µM, first compound 10 µM
[19] = second compound 1 µM, first compound 0.0316 µM
[20] = second compound 1 µM, first compound 0.1 µM
[21] = second compound 1 µM, first compound 0.316 µM
[22] = second compound 1 µM, first compound 1 µM
[23] = second compound 1 µM, first compound 3.16 µM
[24] = second compound 1 µM, first compound 10 µM
[25] = second compound 3.16 µM, first compound 0.0316 µM
[26] = second compound 3.16 µM, first compound 0.1 µM
[27] = second compound 3.16 µM, first compound 0.316 µM
[28] = second compound 3.16 µM, first compound 1 µM
[29] = second compound 3.16 µM, first compound 3.16 µM
[30] = second compound 3.16 µM, first compound 10 µM
[31] = second compound 10 µM, first compound 0.0316 µM
[32] = second compound 10 µM, first compound 0.1 µM
[33] = second compound 10 µM, first compound 0.316 µM
[34] = second compound 10 µM, first compound 1 µM
[35] = second compound 10 µM, first compound 3.16 µM
[36] = second compound 10 µM, first compound 10 µM
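Further: spheroids exposed to compounds for seven days.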
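Wherever viability, T/C is given: 100% = DMSO vehicle control viability.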

## CC1COCCN1c1cc(C2(O)CC3CCC(C2)O3)c2cnn(-c3ccn[nH]3)c2n1 (stereo not drawn) + Cc1cnc(CNC(=O)c2c(=O)c3ccc(N4CCCN(C)CC4)nc3n3c2sc2ccccc23)cn1
Second compound 0.0316 µM
  IC50: 214 nM
Second compound 0.1 µM
  IC50: 86.1 nM
Second compound 0.316 µM
  IC50: < 31.6 nM
Second compound 1 µM
  IC50: < 31.6 nM
Second compound 3.16 µM
  IC50: < 31.6 nM
Second compound 10 µM
  IC50: < 31.6 nM
[1]
  viability, T/C: 79.9%
[2]
  viability, T/C: 64.3%
[3]
  viability, T/C: 40.1%
[4]
  viability, T/C: 32.2%
[5]
  viability, T/C: 28.6%
[6]
  viability, T/C: 18.2%
[7]
  viability, T/C: 68.8%
[8]
  viability, T/C: 43.1%
[9]
  viability, T/C: 40.9%
[10]
  viability, T/C: 21%
[11]
  viability, T/C: 26.6%
[12]
  viability, T/C: 16.5%
[13]
  viability, T/C: 47.4%
[14]
  viability, T/C: 46.2%
[15]
  viability, T/C: 37.1%
[16]
  viability, T/C: 23.1%
[17]
  viability, T/C: 22.1%
[18]
  viability, T/C: 12.5%
[19]
  viability, T/C: 46.2%
[20]
  viability, T/C: 43.1%
[21]
  viability, T/C: 50.8%
[22]
  viability, T/C: 34.2%
[23]
  viability, T/C: 23.3%
[24]
  viability, T/C: 4.13%
[25]
  viability, T/C: 44.8%
[26]
  viability, T/C: 44.2%
[27]
  viability, T/C: 45.2%
[28]
  viability, T/C: 29.4%
[29]
  viability, T/C: 3.29%
[30]
  viability, T/C: 0.13%
[31]
  viability, T/C: 45.5%
[32]
  viability, T/C: 37.9%
[33]
  viability, T/C: 31.4%
[34]
  viability, T/C: 14.6%
[35]
  viability, T/C: 0.21%
[36]
  viability, T/C: 0.2%

## Cc1[nH]c2ccccc2c1CCNCc1ccc(/C=C/C(=O)NO)cc1 + Cc1[nH]c2ccc(F)cc2c1-c1nc2c3cccnc3c3ncccc3c2[nH]1
Second compound 0.0316 µM
  IC50: > 316 nM
Second compound 0.1 µM
  IC50: > 316 nM
Second compound 0.316 µM
  IC50: > 316 nM
Second compound 1 µM
  IC50: > 316 nM
Second compound 3.16 µM
  IC50: > 316 nM
Second compound 10 µM
  IC50: > 316 nM
Second compound 0.0316 µM, first compound 0.000999 µM
  viability, T/C: 95.9%
Second compound 0.0316 µM, first compound 0.00316 µM
  viability, T/C: 87%
Second compound 0.0316 µM, first compound 0.00999 µM
  viability, T/C: 100%
[1]
  viability, T/C: 77.6%
Second compound 0.0316 µM, first compound 0.0999 µM
  viability, T/C: 75.6%
[3]
  viability, T/C: 61.3%
Second compound 0.1 µM, first compound 0.000999 µM
  viability, T/C: 94.1%
Second compound 0.1 µM, first compound 0.00316 µM
  viability, T/C: 100%
Second compound 0.1 µM, first compound 0.00999 µM
  viability, T/C: 85.3%
[7]
  viability, T/C: 83.3%
Second compound 0.1 µM, first compound 0.0999 µM
  viability, T/C: 79.3%
[9]
  viability, T/C: 55.8%
Second compound 0.316 µM, first compound 0.000999 µM
  viability, T/C: 96.2%
Second compound 0.316 µM, first compound 0.00316 µM
  viability, T/C: 93.5%
Second compound 0.316 µM, first compound 0.00999 µM
  viability, T/C: 91%
[13]
  viability, T/C: 81.2%
Second compound 0.316 µM, first compound 0.0999 µM
  viability, T/C: 88.3%
[15]
  viability, T/C: 66.9%
Second compound 1 µM, first compound 0.000999 µM
  viability, T/C: 96.3%
Second compound 1 µM, first compound 0.00316 µM
  viability, T/C: 92.2%
Second compound 1 µM, first compound 0.00999 µM
  viability, T/C: 115%
[19]
  viability, T/C: 84%
Second compound 1 µM, first compound 0.0999 µM
  viability, T/C: 100%
[21]
  viability, T/C: 50.6%
Second compound 3.16 µM, first compound 0.000999 µM
  viability, T/C: 93.5%
Second compound 3.16 µM, first compound 0.00316 µM
  viability, T/C: 80.6%
Second compound 3.16 µM, first compound 0.00999 µM
  viability, T/C: 80%
[25]
  viability, T/C: 79.1%
Second compound 3.16 µM, first compound 0.0999 µM
  viability, T/C: 95.4%
[27]
  viability, T/C: 71.8%
Second compound 10 µM, first compound 0.000999 µM
  viability, T/C: 82.6%
Second compound 10 µM, first compound 0.00316 µM
  viability, T/C: 109%
Second compound 10 µM, first compound 0.00999 µM
  viability, T/C: 88.2%
[31]
  viability, T/C: 82.8%
Second compound 10 µM, first compound 0.0999 µM
  viability, T/C: 112%
[33]
  viability, T/C: 70.3%

## C#Cc1c(F)ccc2cc(O)cc(-c3ncc4c(N5CC6CCC(C5)N6)nc(OCC56CCCN5CC(F)C6)nc4c3F)c12 (stereo not drawn) + Cc1[nH]c2ccc(F)cc2c1-c1nc2c3cccnc3c3ncccc3c2[nH]1
Second compound 0.0316 µM
  IC50: > 10000 nM
Second compound 0.1 µM
  IC50: > 10000 nM
Second compound 0.316 µM
  IC50: > 10000 nM
Second compound 1 µM
  IC50: > 10000 nM
Second compound 3.16 µM
  IC50: > 10000 nM
Second compound 10 µM
  IC50: > 10000 nM
[1]
  viability, T/C: 112%
[2]
  viability, T/C: 93.3%
[3]
  viability, T/C: 106%
[4]
  viability, T/C: 98.2%
[5]
  viability, T/C: 96%
[6]
  viability, T/C: 80.7%
[7]
  viability, T/C: 103%
[8]
  viability, T/C: 98.4%
[9]
  viability, T/C: 94.7%
[10]
  viability, T/C: 107%
[11]
  viability, T/C: 116%
[12]
  viability, T/C: 110%
[13]
  viability, T/C: 87%
[14]
  viability, T/C: 88.8%
[15]
  viability, T/C: 94%
[16]
  viability, T/C: 99.2%
[17]
  viability, T/C: 87.8%
[18]
  viability, T/C: 124%
[19]
  viability, T/C: 83.4%
[20]
  viability, T/C: 108%
[21]
  viability, T/C: 99.5%
[22]
  viability, T/C: 120%
[23]
  viability, T/C: 125%
[24]
  viability, T/C: 114%
[25]
  viability, T/C: 103%
[26]
  viability, T/C: 87.6%
[27]
  viability, T/C: 121%
[28]
  viability, T/C: 107%
[29]
  viability, T/C: 114%
[30]
  viability, T/C: 113%
[31]
  viability, T/C: 91.6%
[32]
  viability, T/C: 104%
[33]
  viability, T/C: 101%
[34]
  viability, T/C: 110%
[35]
  viability, T/C: 127%
[36]
  viability, T/C: 113%

## COc1ccc([C@@H](O)c2cc(-c3ncnc4cc(N5CCOCC5)ccc34)c(F)cc2Cl)nn1 + CN(C)c1ccc(Nc2c3ccc(NC(=O)CCN4CCCC4)cc3nc3cc(NC(=O)CCN4CCCC4)ccc23)cc1
Second compound 0.0316 µM
  IC50: > 10000 nM
Second compound 0.1 µM
  IC50: > 10000 nM
Second compound 0.316 µM
  IC50: > 10000 nM
Second compound 1 µM
  IC50: > 10000 nM
Second compound 3.16 µM
  IC50: > 10000 nM
Second compound 10 µM
  IC50: > 10000 nM
[1]
  viability, T/C: 101%
[2]
  viability, T/C: 111%
[3]
  viability, T/C: 103%
[4]
  viability, T/C: 111%
[5]
  viability, T/C: 104%
[6]
  viability, T/C: 82.3%
[7]
  viability, T/C: 105%
[8]
  viability, T/C: 99.5%
[9]
  viability, T/C: 89.7%
[10]
  viability, T/C: 88.2%
[11]
  viability, T/C: 84.8%
[12]
  viability, T/C: 71.8%
[13]
  viability, T/C: 76.6%
[14]
  viability, T/C: 103%
[15]
  viability, T/C: 83.6%
[16]
  viability, T/C: 79%
[17]
  viability, T/C: 86.9%
[18]
  viability, T/C: 71.4%
[19]
  viability, T/C: 119%
[20]
  viability, T/C: 106%
[21]
  viability, T/C: 104%
[22]
  viability, T/C: 101%
[23]
  viability, T/C: 88.4%
[24]
  viability, T/C: 79.2%
[25]
  viability, T/C: 81.5%
[26]
  viability, T/C: 101%
[27]
  viability, T/C: 120%
[28]
  viability, T/C: 105%
[29]
  viability, T/C: 97.7%
[30]
  viability, T/C: 75.1%
[31]
  viability, T/C: 105%
[32]
  viability, T/C: 110%
[33]
  viability, T/C: 134%
[34]
  viability, T/C: 88.6%
[35]
  viability, T/C: 109%
[36]
  viability, T/C: 83.1%
